Key:
bovine P450 11A1 = system: bovine P450 11A1; parameters: method as in PMID 7056749; conditions: bovine P450 11A1, within dead time of stopped-flow ref 12; cited from earlier work
human P450 11A1 [1] = biological target: T1, human P450 11A1 (Homo sapiens, UniProt P05108); experiment: Stopped-flow ketoconazole trap, koff and binding rate measurements; conditions: for koff: read-out: koff of P450-sterol complex, 2 μM P450 11A1 + 2 μM steroid mixed with 20 μM ketoconazole, 23 °C, without Adx
T1 construct: M A S T R S P R P F N E I P S P G D N; Met-Ala (N-terminal start residues in place of the transit peptide and Ile40) (N); made in house; host or cells: E. coli C41(DE3) with GroES/GroEL, vector pET23C(+)
T1 sequence (P05108 41-521 limits assumed): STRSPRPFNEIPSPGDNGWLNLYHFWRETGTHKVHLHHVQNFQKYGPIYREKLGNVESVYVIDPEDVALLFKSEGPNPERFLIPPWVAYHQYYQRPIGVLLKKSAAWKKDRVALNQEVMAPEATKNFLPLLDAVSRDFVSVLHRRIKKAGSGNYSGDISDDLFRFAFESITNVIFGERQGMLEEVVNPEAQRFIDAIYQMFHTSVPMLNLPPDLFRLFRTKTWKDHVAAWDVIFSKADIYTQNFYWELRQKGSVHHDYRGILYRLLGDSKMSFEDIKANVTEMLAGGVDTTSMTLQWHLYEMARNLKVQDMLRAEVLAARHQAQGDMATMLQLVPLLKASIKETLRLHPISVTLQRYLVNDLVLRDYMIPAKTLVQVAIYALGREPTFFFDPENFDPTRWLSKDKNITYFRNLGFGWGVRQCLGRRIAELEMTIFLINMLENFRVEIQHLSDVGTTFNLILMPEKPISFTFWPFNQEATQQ
Method: Interaction of the azole nitrogen atom with the P450 heme produces a bathochromic (“type II”) spectral shift (to ∼430 nm)—an inverse effect of the binding of substrate.
Measurement of kon rate(s) was not performed because the sterols are delivered in a solution of HPCD, from which the dissociation rate is not known.
Determinations of koff rates were performed as previously described ([33]).

human P450 11A1 [2] = system: human P450 11A1; parameters: method as in PMID 33271253; conditions: surface plasmon resonance ref 46; cited from earlier work
P450 11A1 (CYP11A1) = biological target: T2, P450 11A1 (CYP11A1) (Homo sapiens, UniProt P05108); experiment: Kinetic isotope effect assay, disappearance of d0- and d3-cholesterol under single-turnover conditions; format: biochemical; conditions: human, pH 7.4; 5 μM P450, 5 μM sterol, low Adx single-turnover; read-out: sterol half-life (t1/2) (converted)
T2 construct: M A S T R S P R P F N E I P S P G D N; Met-Ala (N-terminal start residues in place of the transit peptide and Ile40) (N); made in house; host or cells: E. coli (P450 11A1 in C41(DE3); Adx and AdR in E. coli)
T2 sequence (P05108 41-521 limits assumed): T1 sequence (P05108 41-521 limits assumed)
T2 sequence (P00257 59-186 partner): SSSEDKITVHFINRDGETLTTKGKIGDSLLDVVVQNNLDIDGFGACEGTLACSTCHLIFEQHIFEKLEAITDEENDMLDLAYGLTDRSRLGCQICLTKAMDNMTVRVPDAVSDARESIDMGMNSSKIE
Method: (§1) P450 11A1 incubations were performed under (low Adx) single-turnover conditions (5 μM P450, 5 μM cholesterol; see Experimental procedures) with d0- (authentic, unlabeled) and d3-cholesterol, and the disappearance of each was monitored by LC-atmospheric pressure chemical ionization-MS (m/z 369.3516 and 372.3705, respectively). In theory, if C-H bond breaking were rate-limiting in the initial hydroxylation then the rate of d3-cholesterol consumption would be slower relative to the d0 compound due to the increased strength of a C-D bond.
The kinetic isotope experiment was designed similarly to the benchtop experiment described above, but with some modifications. P450 11A1 (5 μM) was reconstituted with the redox partners AdR (10 μM) and Adx (5 μM) on ice (10 min) prior to dilution in potassium Hepes (50 mM, pH 7.4) and H2O and addition of d3-cholesterol substrate (5 μM). […]
Samples (held at 4 °C) were injected (10 μl) using a Waters Acquity UPLC system on a Acquity BEH octadecylsilane (C18) 2.1 mm × 50 mm (1.7 μm) UPLC column (held at 25 °C) with a flow rate of 0.5 ml min^−1 using an isocratic mobile phase of CH3CN (only). The column eluate was subjected to atmospheric pressure chemical ionization and analyzed using a Thermo Fisher Scientific LTQ XL Orbitrap mass spectrometer instrument operating in positive mode, scanning from m/z 100 to 500, with a resolution setting of 120,000. […]

human P450 11A1 [3] = biological target: T3, human P450 11A1 (Homo sapiens, UniProt P05108); experiment: as above; format: biochemical; parameters: M A S T R S P R P F N E I P S P G D N; Met-Ala (N-terminal start residues in place of the transit peptide and Ile40) (N); made in house; host or cells: E. coli (P450 11A1 in C41(DE3); Adx and AdR in E. coli); conditions: 5 μM P450, 5 μM sterol, exponential decay fit
T3 sequence (P05108 41-521 limits assumed): T1 sequence (P05108 41-521 limits assumed)
T3 sequence (P00257 59-186 partner): T2 sequence (P00257 59-186 partner)
Method: as §1
The kinetic isotope experiment was designed similarly to the benchtop experiment described above, but with some modifications. P450 11A1 (5 μM) was reconstituted with the redox partners AdR (10 μM) and Adx (5 μM) on ice (10 min) prior to dilution in potassium Hepes (50 mM, pH 7.4) and H2O and addition of d3-cholesterol substrate (5 μM). The mixture was preincubated (5 min) prior to initiation with NADPH (2.5 mM, from 25 mM in potassium Hepes (50 mM, pH 7.4)) thus bringing all components to their desired final concentrations. After completing the desired incubation time, an aliquot (500 μl) was removed from the incubation and added to vials containing CH2Cl2 (5 ml) and the vials were mixed with a vortex device and placed on ice. The quenched reactions were centrifuged (10^3g, 5 min, 23 °C) to separate layers, and the organic (bottom) layers were removed (4 ml) and transferred to fresh glass vials. The extraction process was repeated and the two extracts (2 × 4 ml) from each sample were combined to maximize product recovery. Samples (8 ml) were brought to dryness under a stream of nitrogen, and the dried residues were dissolved in CH3OH (25 μl) and transferred to autosampler vials for analysis.
Samples (held at 4 °C) were injected (10 μl) using a Waters Acquity UPLC system on a Acquity BEH octadecylsilane (C18) 2.1 mm × 50 mm (1.7 μm) UPLC column (held at 25 °C) with a flow rate of 0.5 ml min^−1 using an isocratic mobile phase of CH3CN (only). The column eluate was subjected to atmospheric pressure chemical ionization and analyzed using a Thermo Fisher Scientific LTQ XL Orbitrap mass spectrometer instrument operating in positive mode, scanning from m/z 100 to 500, with a resolution setting of 120,000. Data were processed using Xcalibur QualBrowser (Thermo Fisher Scientific) software (version 2.0.7; https://www.thermofishcer.com/order/catalog/product/OPTON).

Structure (SMILES) | rates of binding and dissociation (bovine P450 11A1) [s⁻¹] | koff of P450-sterol complex (human P450 11A1 [1]; 2 μM P450 11A1 + 2 μM steroid mixed with 20 μM ketoconazole, 23 °C, without Adx) [s⁻¹] | koff (human P450 11A1 [1]) [s⁻¹] | observed binding rate (human P450 11A1 [1]; 20 μM final concentration, in HPCD) [s⁻¹] | apparent kon slower than kon of ketoconazole to unliganded P450 (human P450 11A1 [1]; in the presence of HPCD) [fold] | kon (human P450 11A1 [1]; read-out: apparent kon) [M⁻¹ s⁻¹] | decrease in Kd of P450 11A1-Adx complex in the presence of cholesterol (human P450 11A1 [2]) [fold] | half-life at 5 μM (P450 11A1 (CYP11A1)) [s] | rate of disappearance (human P450 11A1 [3]) [s⁻¹]
CC(C)CC[C@@H](O)[C@](C)(O)[C@H]1CC[C@H]2[C@@H]3CC=C4C[C@@H](O)CC[C@]4(C)[C@H]3CC[C@]12C [20R,22R-(OH)2 Chol, (20R,22R)-Cholest-5-ene-3β,20,22-triol] | > 300 | – | – | – | – | – | – | – | –
CC(C)CC[C@@H](O)[C@@H](C)[C@H]1CC[C@H]2[C@@H]3CC=C4C[C@@H](O)CC[C@]4(C)[C@H]3CC[C@]12C [22R-OH Chol, 22R-hydroxycholesterol] | – | 0.044 ± 0.001 | 0.04 | – | – | – | – | – | –
CC(C)CCC[C@@H](C)[C@H]1CC[C@H]2[C@@H]3CC=C4C[C@@H](O)CC[C@]4(C)[C@H]3CC[C@]12C [Cholesterol] | > 300 | – | 0.24 ± 0.01 | 0.05 | > 200 | 2500 | ~3 | 20 | 0.035
